# Data as given in patent US20060069132A1, “Azolecarboxamide herbicides” (priority 2004, published 2006).
# Assays:
# kochia = assay: Test C pre-/postemergence herbicide test; format: in vivo, Kochia scoparia; settings: preemergence; for Plant response rating (0 = no effect, 100 = complete control), Kochia: 125 g ai/ha
# Procedure, shortened: (§1)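 Seeds were planted and sprayed preemergence with test chemicals in a non-phytotoxic solvent mixture containing surfactant; postemergence treatments went onto plants 2 to 18 cm tall (1- to 4-leaf stage). After 12 to 14 days in a greenhouse, injury was rated visually against untreated controls on a 0–100 scale.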
# woolly cupgrass = assay: Test C pre-/postemergence herbicide test; format: in vivo, Eriochloa villosa; settings: preemergence; for Plant response rating (0 = no effect, 100 = complete control), Cupgrass, Woolly: 125 g ai/ha
# Procedure, shortened: as §1
# [1] = tested on: smallflower umbrella sedge; assay: Test C flooded paddy test; format: in vivo, Cyperus difformis; settings: for Plant response rating, Sedge, Umbrella: 500 g ai/ha, visual rating after 12 to 14 days
# lambsquarters = assay: Test C pre-/postemergence herbicide test; format: in vivo, Chenopodium album; settings: preemergence; for Plant response rating (0 = no effect, 100 = complete control), Lambsquarters: 125 g ai/ha
# Procedure, shortened: as §1
# goosegrass = assay: Test C pre-/postemergence herbicide test; format: in vivo, Eleusine indica; settings: preemergence; for Plant response rating (0 = no effect, 100 = complete control), Goosegrass: 125 g ai/ha
# Procedure, shortened: as §1
# morningglory = assay: Test C pre-/postemergence herbicide test; format: in vivo, Ipomoea coccinea; set-up: key to Plant response rating, Morningglory: 0 = no effect, 100 = complete control; settings: preemergence; for Plant response rating (0 = no effect, 100 = complete control), Morningglory: 125 g ai/ha
# Procedure, shortened: as §1
# ducksalad = assay: Test C flooded paddy test; format: in vivo, Heteranthera limosa; settings: for Plant response rating, Ducksalad: 500 g ai/ha, visual rating after 12 to 14 days
# cocklebur = assay: Test C pre-/postemergence herbicide test; format: in vivo, Xanthium strumarium; settings: preemergence; for Plant response rating (0 = no effect, 100 = complete control), Cocklebur: 125 g ai/ha
# Procedure, shortened: as §1
# bermudagrass = assay: Test C pre-/postemergence herbicide test; format: in vivo, Cynodon dactylon; settings: preemergence; for Plant response rating (0 = no effect, 100 = complete control), Bermudagrass: 125 g ai/ha
# Procedure, shortened: as §1
# [2] = 500 g ai/ha, scale 0 to 100 (0 no effect, 100 complete control), visual, 12 to 14 days
# [3] = 125 g ai/ha, scale 0 to 100 (0 no effect, 100 complete control)
# [4] = 250 g ai/ha, scale of 0 to 100, 0 is no effect, 100 is complete control
# [5] = scale 0 to 100 (0 no effect, 100 complete control)
# [6] = 62 g ai/ha, scale 0 to 100, 0 no effect, 100 complete control
SMILES,"Plant response rating (0 = no effect, 100 = complete control), Kochia (kochia)","Plant response rating, Kochia (kochia; 250 g ai/ha, scale 0-100)","Plant response rating, Kochia (kochia; [2])","Plant response rating, Cupgrass, Woolly (woolly cupgrass; 62 g ai/ha, scale 0 to 100)","Plant response rating (0 = no effect, 100 = complete control), Cupgrass, Woolly (woolly cupgrass)","Plant response rating, Cupgrass, Woolly (woolly cupgrass; 250 g ai/ha, scale 0-100)","Plant response rating, Cupgrass, Woolly (woolly cupgrass; [2])","Sedge, Umbrella plant response rating ([1]; 62 g ai/ha, scale 0 to 100)","Sedge, Umbrella plant response rating [1, 3]","Sedge, Umbrella plant response rating [1, 4]","Plant response rating, Sedge, Umbrella [1, 5]","Plant response rating, Lambsquarters (lambsquarters; 62 g ai/ha, scale 0 to 100)","Plant response rating (0 = no effect, 100 = complete control), Lambsquarters (lambsquarters)","Plant response rating, Lambsquarters (lambsquarters; 250 g ai/ha, scale 0-100)","Plant response rating, Lambsquarters (lambsquarters; [2])","Plant response rating, Goosegrass (goosegrass; 62 g ai/ha, scale 0 to 100)","Plant response rating (0 = no effect, 100 = complete control), Goosegrass (goosegrass)","Plant response rating, Goosegrass (goosegrass; 250 g ai/ha, scale 0-100)","Plant response rating, Goosegrass (goosegrass; [2])","Plant response rating, Morningglory (morningglory; 62 g ai/ha, scale 0 to 100)",also measured
CCc1nn(C(C)(C)CC)nc1C(=O)Nc1cccc(C(=O)N(C)C)c1 [Compound 372],100,100,100,50,60,70,100,80,85,85,85,100,100,100,100,70,80,90,90,0,"Plant response rating, Kochia (kochia; 62 g ai/ha, scale 0 to 100): 100; Plant response rating (0 = no effect, 100 = complete control), Morningglory (morningglory): 5; Plant response rating, Morningglory (morningglory; 250 g ai/ha, scale 0-100): 40; Plant response rating, Morningglory (morningglory; [2]): 80; Ducksalad plant response rating (ducksalad; 62 g ai/ha, scale 0 to 100): 65; Ducksalad plant response rating (ducksalad; [3]): 85; Ducksalad plant response rating (ducksalad; [4]): 85; Plant response rating, Ducksalad (ducksalad; [5]): 85; Plant response rating, Cocklebur (cocklebur; 62 g ai/ha, scale 0 to 100): 0; Plant response rating (0 = no effect, 100 = complete control), Cocklebur (cocklebur): 10; Plant response rating, Cocklebur (cocklebur; 250 g ai/ha, scale 0-100): 60; Plant response rating, Cocklebur (cocklebur; [2]): 90; Plant response rating, Bermudagrass (bermudagrass; [6]): 75; Plant response rating (0 = no effect, 100 = complete control), Bermudagrass (bermudagrass): 98; Plant response rating, Bermudagrass (bermudagrass; 250 g ai/ha, scale 0-100): 98; Plant response rating, Bermudagrass (bermudagrass; [2]): 100"
CCNC(=O)c1cccc(NC(=O)c2nn(C(C)(C)CC)nc2CC)c1 [Compound 376],100,100,100,5,30,75,85,80,85,85,85,100,100,100,100,80,100,100,100,0,"Plant response rating, Kochia (kochia; 62 g ai/ha, scale 0 to 100): 95; Plant response rating (0 = no effect, 100 = complete control), Morningglory (morningglory): 0; Plant response rating, Morningglory (morningglory; 250 g ai/ha, scale 0-100): 5; Plant response rating, Morningglory (morningglory; [2]): 5; Ducksalad plant response rating (ducksalad; 62 g ai/ha, scale 0 to 100): 25; Ducksalad plant response rating (ducksalad; [3]): 85; Ducksalad plant response rating (ducksalad; [4]): 85; Plant response rating, Ducksalad (ducksalad; [5]): 85; Plant response rating, Cocklebur (cocklebur; 62 g ai/ha, scale 0 to 100): 0; Plant response rating (0 = no effect, 100 = complete control), Cocklebur (cocklebur): 0; Plant response rating, Cocklebur (cocklebur; 250 g ai/ha, scale 0-100): 0; Plant response rating, Cocklebur (cocklebur; [2]): 5; Plant response rating, Bermudagrass (bermudagrass; [6]): 80; Plant response rating (0 = no effect, 100 = complete control), Bermudagrass (bermudagrass): 90; Plant response rating, Bermudagrass (bermudagrass; 250 g ai/ha, scale 0-100): 100; Plant response rating, Bermudagrass (bermudagrass; [2]): 100"
Cc1nn(C(C)(C)C)nc1C(=O)Nc1cccc(C(=O)N(C)C)c1 [Compound 391],100,100,100,70,75,80,100,80,80,85,95,100,100,100,100,80,85,90,95,100,"Plant response rating, Kochia (kochia; 62 g ai/ha, scale 0 to 100): 100; Plant response rating (0 = no effect, 100 = complete control), Morningglory (morningglory): 100; Plant response rating, Morningglory (morningglory; 250 g ai/ha, scale 0-100): 100; Plant response rating, Morningglory (morningglory; [2]): 100; Ducksalad plant response rating (ducksalad; 62 g ai/ha, scale 0 to 100): 85; Ducksalad plant response rating (ducksalad; [3]): 85; Ducksalad plant response rating (ducksalad; [4]): 85; Plant response rating, Ducksalad (ducksalad; [5]): 95; Plant response rating, Cocklebur (cocklebur; 62 g ai/ha, scale 0 to 100): 20; Plant response rating (0 = no effect, 100 = complete control), Cocklebur (cocklebur): 45; Plant response rating, Cocklebur (cocklebur; 250 g ai/ha, scale 0-100): 80; Plant response rating, Cocklebur (cocklebur; [2]): 80; Plant response rating, Bermudagrass (bermudagrass; [6]): 95; Plant response rating (0 = no effect, 100 = complete control), Bermudagrass (bermudagrass): 95; Plant response rating, Bermudagrass (bermudagrass; 250 g ai/ha, scale 0-100): 95; Plant response rating, Bermudagrass (bermudagrass; [2]): 95"
CCNC(=O)c1ccc(F)c(N(C(C)=O)C(=O)c2cc(C(C)(C)C)nn2CC)c1 [Compound 399],80,100,100,45,65,80,95,65,70,85,85,100,100,100,100,95,100,100,100,15,"Plant response rating (0 = no effect, 100 = complete control), Morningglory (morningglory): 25; Plant response rating, Morningglory (morningglory; [2]): 75; Ducksalad plant response rating (ducksalad; 62 g ai/ha, scale 0 to 100): 75; Ducksalad plant response rating (ducksalad; [3]): 75; Ducksalad plant response rating (ducksalad; [4]): 85; Plant response rating, Ducksalad (ducksalad; [5]): 85; Plant response rating, Cocklebur (cocklebur; 62 g ai/ha, scale 0 to 100): 15; Plant response rating (0 = no effect, 100 = complete control), Cocklebur (cocklebur): 65; Plant response rating, Cocklebur (cocklebur; 250 g ai/ha, scale 0-100): 70; Plant response rating, Cocklebur (cocklebur; [2]): 80; Plant response rating, Bermudagrass (bermudagrass; [6]): 100; Plant response rating (0 = no effect, 100 = complete control), Bermudagrass (bermudagrass): 100; Plant response rating, Bermudagrass (bermudagrass; 250 g ai/ha, scale 0-100): 100; Plant response rating, Bermudagrass (bermudagrass; [2]): 100"
